How the values were obtained:
rabbit heart [1] = assay: Rabbit heart cold preservation (24 h, 4° C.) and Langendorff reperfusion: developed pressure
Protocol: Male New Zealand rabbits (1.4-1.8 kg weight) were kept on a standard laboratory diet supplemented with “Nossan pellet” (both the animals and pellets are available from Nossan Company, Milan, Italy) and were housed for three weeks (relative humidity 50% ±10%, temperature 22° C.±1° C. and in a light/darkness cycle of 12 hours/12 hours, with first light at 7.30 a.m.) prior to the experiments; food and water were available ad libitum.
The hearts were quickly excised from anesthetized animals (55 mg/kg body weight sodium pentobarbital; ten rabbits for each experiment group were used) flushed with the respective experimental solutions and placed in either cold (4° C.) Celsior and Celsior plus 5 mM MP1001 or Celsior plus GSH 5 mM for 24 hours. Because Celsior standard solution contains 3 mM reduced glutathione (GSH), comparative experiments in term of “total antioxidant power” using equimolar antioxidant amount (e.g. adding 5 mM MP1001 or 5 mM GSH to Celsior) were performed. […]
After 24 hours of cold preservation and reperfusion for 1 hour, the developed pressure (as a measure of protection) of the hearts preserved in Celsior (standard/control) was a mean of 34±9.55 mmHg. […] We determined that this level of recovery was not sufficient and proceeded to add the cardioprotective antioxidant MP1001 (5 mM) or GSH (5 mM, to have a final, equimolar 8 mM “antioxidant concentration”).

rabbit heart [2] = assay: Lipid peroxidation (MDA release) in rabbit hearts after 1 h reperfusion
Protocol: (§1) The hearts were quickly excised from anesthetized animals (55 mg/kg body weight sodium pentobarbital; ten rabbits for each experiment group were used) flushed with the respective experimental solutions and placed in either cold (4° C.) Celsior and Celsior plus 5 mM MP1001 or Celsior plus GSH 5 mM for 24 hours. Because Celsior standard solution contains 3 mM reduced glutathione (GSH), comparative experiments in term of “total antioxidant power” using equimolar antioxidant amount (e.g. adding 5 mM MP1001 or 5 mM GSH to Celsior) were performed.
(§2) At the end of cold preservation, the organs were then reperfused in a Langerdoff working heart model with oxygenated Krebs-Henseleit buffer (120 mM NaCl, 25 mM NaHCO3, 4.9 mM KCl, 1.2 mM KH2PO4, 2.5 mM CaCl2, 1.25 MgSO4 and 10 mM glucose). The buffers were bubbled regularly with a mixture of O2 (95%) and CO2 (5%); the CO2 helped maintain the buffer at a physiological pH (7.4). In the mean time, the apparatus had extensive water-jacketing connected to a water heater that maintained buffers and hearts at 37° C. The buffers was filtered through a Gelman GA-4, 0.8 μm metrical, membrane before the use. […]
(§3) Lipid peroxidation was determined by quantification of the release of malondialdeyde (MDA) accumulated in cells which was used as biomarker, essentially according to Buege Y. A. & Aust S. G., Method Enzymol. […]

rabbit heart [3] = assay: Carbonyl proteins in rabbit hearts after 1 h reperfusion
Protocol: as §1, §2, §3

rabbit heart [4] = assay: LDH levels in the perfusate of rabbit hearts after 1 h reperfusion
Protocol: as §1, §2, §3

rabbit heart [5] = assay: Histopathological analysis of rabbit hearts after 1 h reperfusion; settings: hearts stored in Celsior plus 5 mM MP1001 as compared to GSH
Protocol: as §1
as §2, with “use. A saline-filled latex balloon connected through a pressure transducer to a polygraph recorder was inserted into the left ventricle through a left atriotomy and secured by a suture to the mitrial annulus.” for “use.”

[6] = rabbit hearts, 24 h cold preservation in Celsior (additive 5 mM where given)

Structure (SMILES)	protection (developed pressure) compared to standard Celsior solution (rabbit heart [1]; 5 mM added to Celsior (8 mM GSH final), 24 hours cold preservation, 1 h reperfusion)	effect on lipid peroxidation vs standard Celsior (rabbit heart [2]; additional 5 mM in Celsior)	effect on carbonyl proteins vs standard Celsior (rabbit heart [3]; 5 mM supplement in Celsior)	effect on LDH vs standard Celsior (rabbit heart [4]; 5 mM supplement in Celsior)	developed pressure (rabbit heart [1]; rabbit hearts, 24 hours cold (4° C.) preservation in Celsior (additive 5 mM where given), reperfusion for 1 hour) [mmHg]	lipid peroxidation (malondialdeyde, MDA) (rabbit heart [2]; [6])	carbonyl proteins (rabbit heart [3]; [6])	LDH levels in the perfusate (rabbit heart [4]; [6])	histopathological analysis (myocyte injury, edema, endotelial damage) (rabbit heart [5])
N[C@@H](CCC(=O)N[C@@H](CS)C(=O)NCC(=O)O)C(=O)O [GSH, reduced glutathione, reference compound]	did not provide any additional protection	did not significantly modify this parameter	not modified	not modified					
CC1(C)CC(OC(=O)CCCCCCCCC(=O)OC2CC(C)(C)N(O)C(C)(C)C2)CC(C)(C)N1O [MP1001, bis(1-hydroxy-2,2,6,6-tetramethyl-4-piperidinyl)decandioate]					88±9.02	0.31±0.10	48±11	0.3±0.1	Hearts sustained less injury by all criteria examined
